Assay [1] relates to Human pleural mesothelioma cells NCI-H226. The assay can be described thus: Proliferation inhibition assay of human pleural mesothelioma cells NCI-H226 (CCK8). The class given is cell-based. The following applies: 72 h, 3 days incubation. The source says: Experimental Example 1 Cell Anti-Proliferation Test
Proliferation Inhibition Assay of Human Pleural Mesothelioma Cells NCI-H226 by YAP-TEAD Inhibitor Compounds
Experimental materials and equipment: Human pleural mesothelioma cells NCI-H226 were purchased from Nanjing Cobioer Biosciences CO., LTD. RPMI-1640 medium (Bio-Channel), DMSO (dimethyl sulfoxide), CCK8 (WST-8) cell analysis kit (Beyotime), 0.25% EDTA-Tripsin (trypsin solution), 1×PBS (phosphate buffer, PH7.2), 96-well plate (Corning), fetal bovine serum (FBS), 10,000 U/mL penicillin-G/streptomycin, high-speed cryo-centrifuge (EPPENDORF 5810R), enzyme-linked immunoassay (Tecan Spark).
• A) Tumor cells were cultured in RPMI-1640 (containing 10% FBS and 100 U/mL penicillin-G/streptomycin) at 37° C., 5% CO^2 and saturated humidity until 80-90% density. • B) Removed the culture medium from 10 cm Petri dishes; • C) Rinsed the cells once with 10 ml 1×PBS; • D) Added 4 ml 0.25% EDTA-Tripsin into 37° C., 5% CO^2 incubator for trypsin digestion for 5 minutes, transferred to 15 ml centrifuge tube, centrifuged at 200 g for 5 minutes, discarded the supernatant to get cell precipitate; • E) Resuspend with 4 ml DMEM medium, count and adjust to 10,000 cells/ml. • F) Added cell suspension to 96-well plate with 100 μL per well volume and incubate overnight at 37° C., 5% CO^2 incubator.
• A) Preparation of gradient dilution solution of tested compounds: the test compounds were configured into 1 mM reservoir solution. Then 1.5 μl of the reservoir solution was dissolved in 1.5 ml of DMSO-free culture solution, and then a 3-fold serial gradient dilution was performed with 0.1% DMSO culture solution for a total of 9 concentrations, and the concentrations of the compounds after dilution were as follows: • 333.33 nM, 111.11 nM, 37.03 nM, 12.35 nM, 4.15 nM, 1.37 nM, 0.46 nM, 0.15 nM • B) After thorough mixing, 100 μL of culture compound solution was taken separately to replace the culture solution in the cell culture plate, with 4 replicate wells for each concentration; • C) The cells were transferred to the incubator and incubated for 3 days.
• A) Removed the cell culture plate and added 10 μl of CCK-8 (WST-8) solution per well in the biosafety cabinet. • B) Placed the cell culture plate back into the incubator and continued incubation for 3 hours. • C) Determined the absorbance value by selecting 450 nm on a TECAN enzyme-linked immunoassay detector.
The cell viability (% Cell Viability) was calculated using the following formula.
[formula] • A (dosing): absorbance of wells with cells, CCK8 solution and drug solution • A (blank): absorbance of wells with medium and CCK8 solution but no cells • A (0 dosing): absorbance of wells with cells, CCK8 solution and no drug solution • Cell viability: Cell proliferation viability or cytotoxicity viability IC50 values were obtained by curve fitting with GraphPad Prism 8 software.

A further assay has as its system YAP-TEAD. The assay can be described thus: Nano luciferase method to detect YAP-TEAD inhibitor activity (293T cells transfected with pGL3B-8×GTiiC-nLuc-CMV-fLuc). Conditions: Homo sapiens, HEK-293T, transfected 293T cells, 48 hours incubation, read-out: Nano Luciferas detection (IC50). The assay is classed as cell-based. The text has this:
Experimental Example 2 Nano Luciferase Method to Detect YAP-TEAD Inhibitor Activity
(1) Experimental materials and equipment: 293T cells were purchased from Nanjing Cobioer Biosciences CO., LTD. DMEM medium (high sugar, phenol red free, Bio-Channel), DMSO (dimethyl sulfoxide), Lipo6000™ transfection reagent (Beyotime), pGL3B-8×GTiiC-nLuc-CMV-fLuc plasmid, 0.25% EDTA Tripsin (trypsin solution), 1×PBS (phosphate buffer, PH7.2), 96-well white cell culture plate (PerkinElmer), Fetal Bovine Serum (FBS), 10,000 U/mL penicillin-G/streptomycin, High-speed cryo-centrifuge (EPPENDORF 5810R), 37° C. CO^2 incubator, Vi-Cell® cell counter, Envision microplate reader (PerkinElmer).
Resuscitated 293T cells were inoculated into 10 cm petri dishes and placed in a 5% CO^2 incubator at a constant temperature of 37° C. To ensure transfection efficiency, cells in the logarithmic phase (cell density of about 50%-70%) should be used.
One day before transfection, cells in logarithmic phase were digested with Trypsin-EDTA, the reaction was terminated by adding medium, and the cell suspension was made by blowing and mixing with a pipette.
The cell concentration was determined using Vi-cell and diluted to a suspension of 5*10^5 cells per milliliter. Once the cell suspension was prepared, it was gently mixed and 10 ml of liquid was added to a 10 cm petri dish. […] The cells were incubated in a 5% CO^2 incubator at 37° C. for 1 day.
Take two clean and sterile centrifuge tubes, added 750 μL of opti-MEM Medium without antibiotics and serum respectively, then added […] of plasmid (pGL3B-8×GTiiC-nLuc-CMV-fLuc) to one of the tubes and gently blown with a pipette for mixing; the other tube was added with Lipo6000 transfection reagent and gently blown with a pipette for mixing. After standing at room temperature for 5 minutes, the culture medium containing DNA was gently added to the culture medium containing Lipo6000 transfection reagent, mixed by gently inverting the centrifuge tube, and stood at room temperature for 5 minutes.
The above mixture was added evenly dropwise to a 10-cm petri dish and replaced with fresh complete medium after 6 h of incubation.
After 1 day of transfection, Trypsin EDTA was used to digest the cells, medium was added to terminate the reaction, and a cell suspension was made by blowing and mixing with a pipette.
Cell concentration was determined using Vi-cell, and diluted to a suspension of 20,000 cells per milliliter.
After the cell suspension was prepared, it was gently mixed and 100 μL was added to each well in a 96-well plate so that the density of cells to be measured was 2000 per well.
The inoculated cell culture plates were incubated in an incubator, and the compounds in concentration gradients were added after about 24 hours.
The 10 mM compound reservoir solution was diluted to 50 μM with culture medium, and 50 μM compound solution was added sequentially to the third column of the deep-well plate, and 216 μL of culture medium containing 0.5% DMSO to the fourth to eleventh columns.
Gradient dilution: 100 μL of solution was pipetted from the third column and added to the fourth column, after mixing; another 100 μL of solution was pipetted from the fourth column and added to the fifth column, and the operation was repeated until the eleventh column.
Using a multichannel pipette, 25 μL of compound solution was pipetted from the deep-well plate and added to the 96-well culture plate, and each compound was repeated four times on the 96-well plate. A concentration gradient with a maximum concentration of 10,000 nM, 1:3.16, was eventually formed on the 96-well plate.
The 96-well plate was incubated in a 5% CO^2 incubator at a constant temperature of 37° C. for 48 hours, then removed and equilibrated at room temperature for 10 minutes.
100 μL of detection reagent was added to each well and placed on a horizontal shaker at low speed for 10 minutes to fully lyse the cells. […]

Where [2] appears, read: reference compounds of WO2009081259A1.

SMILES strings stand for the structures. Where two headings read alike, the source gives them in different places. Bounds are passed on as bounds.

Regarding `C=CC(=O)N1CC2(C1)CN(c1nccnc1Nc1ccc(C(F)(F)F)cc1)C2` [Compound T57], the IC50 (in assay [1]; with YAP-TEAD) was not above 0.1 µM throughout.
As to `C=CC(=O)N1CCC(c2ccnnc2Nc2ccc(C(F)(F)F)cc2)CC1` [Compound T42], the IC50 (in assay [1]; in the assay with YAP-TEAD) was 0.1 to 1 µM in each case.
With `C=CC(=O)N1CCC(c2cc(-c3ccccc3)cnc2Nc2ccc(C(F)(F)F)cc2)CC1` [Compound T56], the IC50 (in assay [1]; in the assay with YAP-TEAD) was not above 0.1 µM throughout.
As to `C=C(C)C(=O)N1CCC(c2cccnc2Nc2ccc(C(F)(F)F)cc2)CC1` [Compound T48], the IC50 (in assay [1]; in the assay on YAP-TEAD) was 1 to 5 µM each time.
Turning to `FC(F)(F)c1ccc(Nc2ncc(C(F)(F)F)cc2C2CCNCC2)cc1` [Reference compound 5, reference compound], the IC50 (in assay [1] (setting [2]); in the assay on YAP-TEAD (setting [2])) was more than 5 µM each time.
As to `C=CC(=O)N1CCC(c2cncnc2Nc2ccc(C(F)(F)F)cc2)CC1` [Compound T43], the IC50 (in assay [1]; in the assay with YAP-TEAD) was 0.1 to 1 µM throughout.
For `C=CC(=O)N1CC(c2cccnc2Nc2ccc(S(F)(F)(F)(F)F)cc2)C1` [Compound T10], the IC50 (in assay [1]; with YAP-TEAD) was not above 0.1 µM each time.
On to `C=CC(=O)N1CC=C(c2cccnc2Nc2ccc(C(F)(F)F)cc2)C1` [Compound T4], for which the IC50 (in assay [1]; in the assay on YAP-TEAD) was not above 0.1 µM in each case.
Regarding `C=CC(=O)N1CC(c2nccnc2Nc2ccc(C(F)(F)F)cc2)C1` [Compound T20], the IC50 (in assay [1]; in the assay on YAP-TEAD) was not above 0.1 µM in each case.
Consider `C=C(F)C(=O)N1CCC(c2cccnc2Oc2ccc(C(F)(F)F)cc2)C(F)(F)C1` (centres unmarked) [Compound T81], for which the IC50 (in assay [1]; with YAP-TEAD) was 0.1 to 1 µM throughout.
In the case of `C=CC(=O)N1CCC(c2cccnc2Nc2ccc(C)cc2)CC1` [Compound T11], the IC50 (in assay [1]; in the assay on YAP-TEAD) was not above 0.1 µM throughout.
Consider `CC/C=C/C(=O)N1CCC(c2cccnc2Nc2ccc(C(F)(F)F)cc2)CC1` [Compound T52], for which the IC50 in assay [1] lay in the range of 1 to 5 µM; in the assay on YAP-TEAD, 0.1 to 1 µM.
Regarding `C=CC(=O)N1CC=C(c2cccnc2Nc2ccc(S(F)(F)(F)(F)F)cc2)CC1` [Compound T7], the IC50 (in assay [1]; with YAP-TEAD) was not above 0.1 µM each time.
Consider `C=CC(=O)N1CCC(c2c(F)ccnc2Nc2ccc(C(F)(F)F)cc2)CC1` [Compound T26], for which the IC50 (in assay [1]; with YAP-TEAD) was not above 0.1 µM throughout.
On to `C=CC(=O)N1CCC(c2cccnc2Nc2ccc(S(F)(F)(F)(F)F)cc2)C1` (centres unmarked) [Compound T8], for which the IC50 (in assay [1]; in the assay with YAP-TEAD) was not above 0.1 µM each time.
On to `C#CC(=O)N1CCC(c2cccnc2Nc2ccc(C(F)(F)F)cc2)CC1` [Compound T49], for which the IC50 is 1 to 5 µM in assay [1] and not above 0.1 µM in the assay on YAP-TEAD.
With `C=CC(=O)N1CCC(c2cc(C)cnc2Oc2ccc(C(F)(F)F)cc2)CC1` [Compound T44], the IC50 (in assay [1]; in the assay on YAP-TEAD) was 0.1 to 1 µM throughout.
On to `C=CC(=O)N1CCC(c2cc(C(F)(F)F)cnc2Oc2ccc(C(F)(F)F)cc2)CC1` [Compound T39], for which the IC50 (in assay [1]; with YAP-TEAD) was 0.1 to 1 µM in each case.
With `C=CC(=O)N1CCC(c2cc(-c3ccsc3)cnc2Nc2ccc(C(F)(F)F)cc2)CC1` [Compound T98], the IC50 in assay [1] is 1 to 5 µM; in the assay with YAP-TEAD it was 0.1 to 1 µM.
For `C=CC(=O)N1CCC(c2cc(F)cnc2Oc2ccc(C(F)(F)F)cc2)CC1` [Compound T38], the IC50 (in assay [1]; in the assay on YAP-TEAD) was 0.1 to 1 µM in each case.
Turning to `C=CC(=O)N1CCC(c2cccnc2Nc2ccc(C(F)(F)F)cc2)C1` (centres unmarked) [Compound T3], the IC50 (in assay [1]; with YAP-TEAD) was 0.1 to 1 µM throughout.
Turning to `FC(F)(F)c1ccc(Oc2ncc(Cl)cc2C2CCNCC2)cc1` [Reference compound 7, reference compound], the IC50 (in assay [1] (setting [2]); in the assay with YAP-TEAD (setting [2])) was more than 5 µM each time.
Take `C=CC(=O)N1CCC(c2cc(C#N)cnc2Oc2ccc(C(F)(F)F)cc2)CC1` [Compound T74]: the IC50 (in assay [1]; in the assay on YAP-TEAD) was 0.1 to 1 µM each time.
In the case of `C=CC(=O)N1CCC(c2cc(-c3cccs3)cnc2Nc2ccc(C(F)(F)F)cc2)CC1` [Compound T99], the results for the IC50 (in assay [1]; in the assay on YAP-TEAD) were 1 to 5 µM and 0.1 to 1 µM, respectively.
Regarding `C=C(F)C(=O)N1CCC(c2cccnc2Nc2ccc(C(F)(F)F)cc2)CC1` [Compound T51], the IC50 (in assay [1]; in the assay with YAP-TEAD) was 0.1 to 1 µM throughout.
As to `C=CC(=O)N1CCC(c2nc(C)c(C)nc2Nc2ccc(C(F)(F)F)cc2)CC1` [Compound T93], the IC50 (in assay [1]; in the assay with YAP-TEAD) was 0.1 to 1 µM each time.
`C=CC(=O)N1CCC(c2cc(-c3ccncc3)cnc2Nc2ccc(C(F)(F)F)cc2)CC1` [Compound T97]: the values for the IC50 (in assay [1]; in the assay with YAP-TEAD) were 1 to 5 µM and 0.1 to 1 µM, respectively.
Consider `C=CC(=O)N1CCC(c2cc(-c3ccccn3)cnc2Nc2ccc(C(F)(F)F)cc2)CC1` [Compound T95], for which the IC50 was in the range of 1 to 5 µM in assay [1] and 0.1 to 1 µM in the assay on YAP-TEAD.
With `C=CC(=O)N1CCC(c2cccnc2Oc2ccc(C(F)(F)F)cc2)C(F)(F)C1` (centres unmarked) [Compound T77], the IC50 (in assay [1]; in the assay with YAP-TEAD) was not above 0.1 µM throughout.
As to `C=CC(=O)N1CCC(c2cc(-c3cn[nH]c3)cnc2Nc2ccc(C(F)(F)F)cc2)CC1` [Compound T55], the IC50 (in assay [1]; with YAP-TEAD) was 0.1 to 1 µM each time.
As to `C=CC(=O)N1CCC(c2cc(OC)cnc2Oc2ccc(C(F)(F)F)cc2)CC1` [Compound T73], the IC50 (in assay [1]; in the assay with YAP-TEAD) was 0.1 to 1 µM each time.

As usually defined, the IC50 is the concentration that gives 50% inhibition.

The values above are taken from patent US20260152480A1, “POLYCYCLIC COMPOUND AND USE THEREOF” (TYK MEDICINES , INC., priority 2022, published 2026).
